# Experiments:
# [1] = system: NOD2 cellular signaling in HEK-Blue cells expressing human NOD2; assay: NOD2 cell signaling assay (HEK-Blue, NFkB-SEAP reporter, L18-MDP stimulated); assay type: cell-based; conditions: read-out: IC50 (nM) HEKBlue RIPK2
# Procedure: NOD2 Cell Signaling Assay.
# HEK-Blue cells expressing human NOD2 and NFkB-SAEP reporter (Invivogen) are seeded into 96 well clear plates at 7.5×10^3 cells per well in 100 μL of DMEM media supplemented with 10% FBS and 1% antibiotic-antimycotic mix. Cells are allowed to attach for 48 h in 5% CO2 tissue culture incubator at 37° C. On the morning of the experiment, media in the wells is replaced with 100 pt of HEK-Blue detection media (Invivogen). Cells are treated with the inhibitors, diluted in DMSO (0.5 μL per well) for 15 min in 5% CO2 tissue culture incubator at 37° C. After that, cells are stimulated by the addition of 1 ng/well L18-MDP (Invivogen). Cells are incubated in 5% CO2 tissue culture incubator at 37° C. for 8 h and absorbance, corresponding to the SEAP in the media, is determined in Wallac3V plate reader (Perkin Elmer). Inhibition, %=(1−((sample signal-unstimulated and DMSO treated cells)/(L18-MDP stimulated and DMSO treated cells−unstimulated and DMSO treated cells)))*100. IC50 values are calculated based on a dose range of inhibitor concentrations using non-linear regression in GraphPad Prism software.
# human ALK2 = target: T1, human ALK2 (Homo sapiens, UniProt Q04771); assay: Activin-Like Kinase 2 (ALK2) enzyme assay; assay type: biochemical
# T1 sequence (Q04771 21-509): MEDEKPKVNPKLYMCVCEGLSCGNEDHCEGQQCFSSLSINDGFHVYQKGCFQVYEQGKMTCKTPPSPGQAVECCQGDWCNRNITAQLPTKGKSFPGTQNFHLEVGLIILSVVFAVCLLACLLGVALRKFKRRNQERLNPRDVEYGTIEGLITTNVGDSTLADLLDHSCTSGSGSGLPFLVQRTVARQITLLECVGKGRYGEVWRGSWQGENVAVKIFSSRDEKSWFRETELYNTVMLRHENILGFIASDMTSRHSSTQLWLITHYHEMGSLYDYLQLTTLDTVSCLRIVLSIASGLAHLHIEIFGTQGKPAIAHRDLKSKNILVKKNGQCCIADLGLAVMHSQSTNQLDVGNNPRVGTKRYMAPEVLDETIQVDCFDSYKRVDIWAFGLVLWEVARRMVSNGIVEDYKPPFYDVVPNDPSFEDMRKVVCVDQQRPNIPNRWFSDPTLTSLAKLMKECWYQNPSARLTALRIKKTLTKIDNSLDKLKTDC
# Procedure: Activin-Like Kinase 2 (ALK2) Enzyme Assay
# Enzyme inhibitory activity was evaluated in a standard kinase enzyme assay by incubating human ALK2 with the protein substrate casein (1 mg/mL) and γ-^33ATP (10 μM) in the presence of various concentrations of test compounds (10 nM-100 μM). After 30 min the amount of ^33P-casein was determined.
# [2] = target: Recombinant RIPK2 protein (Homo sapiens, UniProt O43353); assay: Receptor Interacting Protein Kinase 2 (RIPK2) enzyme assay (ADP-Glo); assay type: biochemical; conditions: for inhibition at 0.5 µM: Conc. 500 nM
# Procedure: Receptor Interacting Protein Kinase 2 (RIPK2) Enzyme Assay
# Recombinant RIPK2 protein (20 ng per reaction) is diluted in the reaction buffer consisting of 40 mM Tris (pH 7.5); 20 mM MgCl2; 0.1 mg/ml BSA; 50 μM DTT. Diluted protein is added to low volume white 384 well plates (2 μL/well). Inhibitors are diluted in reaction buffer (final 25% DMSO), 1 μL is added to each well and incubated 5 min at room temperature. Reactions are initiated by the addition of 2 μL of 100 μM ATP and 1 mg/ml RS repeat peptide (SignalChem) in the reaction buffer. Plates are sealed with plastic coverslips and incubated at room temperature for 2 h. Reactions are stopped by the addition of 5 μL of ADP-Glo reagent (Promega) and ADP generation reaction is performed for 40 min at room temperature. Luminescence signal is generated by the addition of 10 μL of Kinase detection reagent (Promega) for 30 min at room temperature Luminescence signals are determined using appropriate luminescence plate-reader (typical integration time 0.3-1 sec). To calculate percent inhibition, average background signal is subtracted from test well and maximal signal wells. Inhibition, %=(1−(test signal/maximal signal))*100. The percent inhibition at a specified concentration is determined or IC50 values are calculated based on a dose range of inhibitor concentrations using non-linear regression in GraphPad Prism software.
# Chain of Recombinant RIPK2 protein (O43353 whole entry, species assumed): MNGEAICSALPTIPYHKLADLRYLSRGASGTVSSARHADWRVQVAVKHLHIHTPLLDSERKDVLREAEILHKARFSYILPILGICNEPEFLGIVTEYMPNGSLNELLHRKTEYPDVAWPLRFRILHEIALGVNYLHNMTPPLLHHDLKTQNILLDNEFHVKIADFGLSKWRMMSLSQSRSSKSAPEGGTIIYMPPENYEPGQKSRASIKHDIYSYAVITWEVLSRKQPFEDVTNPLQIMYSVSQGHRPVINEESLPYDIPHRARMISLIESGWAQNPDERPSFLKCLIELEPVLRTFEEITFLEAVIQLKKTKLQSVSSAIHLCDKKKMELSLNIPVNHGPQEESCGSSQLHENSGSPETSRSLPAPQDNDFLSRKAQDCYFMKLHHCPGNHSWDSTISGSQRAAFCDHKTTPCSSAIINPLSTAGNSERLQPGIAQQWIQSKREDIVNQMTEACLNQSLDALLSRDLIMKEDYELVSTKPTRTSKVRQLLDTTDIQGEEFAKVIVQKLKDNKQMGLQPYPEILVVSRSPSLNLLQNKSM
SMILES,IC50 [1] [nM],IC50 (human ALK2) [nM],IC50 [2] [nM],inhibition at 0.5 µM [2] [%]
"CCCS(=O)(=O)N1CCc2ccc(-c3cc(-c4ccc(N5CCNCC5)cc4)cnc3N)cc21 [CSLP46, 5-(4-(Piperazin-1-yl)phenyl)-3-(1-(propylsulfonyl)indolin-6-yl)pyridin-2-amine]",> 1000,> 100000,> 100,
CCCS(=O)(=O)Nc1cc(-c2cc(-c3ccc(N4CCNCC4)cc3)cnc2N)cc(OCC)c1OC [CSLP56],> 1000,> 100000,> 1000,
"CCCS(=O)(=O)Nc1cc(-c2cc(-c3ccc(N4CCNCC4)cc3)cnc2N)cc(F)c1C [CSLP41, N-(5-(2-Amino-5-(4-(piperazin-1-yl)phenyl)pyridin-3-yl)-3-fluoro-2-methylphenyl)propane-1-sulfonamide]",> 100,> 100000,> 100,
"CC(C)Oc1cc(NS(=O)(=O)C(C)C)cc(-c2cc(-c3ccc(N4CCNCC4)cc3)cnc2N)c1 [CSLP29, N-(3-(2-Amino-5-(4-(piperazin-1-yl)phenyl)pyridin-3-yl)-5-isopropoxyphenyl)propane-2-sulfonamide]",> 100,> 100000,> 100,
"CCCS(=O)(=O)Nc1ccc(-c2cc(-c3ccc(N4CCNCC4)cc3)cnc2C)cc1OC [CSLP1, N-(2-methoxy-4-(2-methyl-5-(4-(piperazin-1-yl)phenyl)pyridin-3-yl)phenyl)propane-1-sulfonamide]",> 1000,> 100000,,< 0
"COc1cc(NS(=O)(=O)CC(C)C)cc(-c2cc(-c3ccc(N4CCNCC4)cc3)cnc2N)c1 [CSLP12, N-(3-(2-Amino-5-(4-(piperazin-1-yl)phenyl)pyridin-3-yl)-5-methoxyphenyl)-2-methylpropane-1-sulfonamide]",> 100,> 1,> 10,
CCCS(=O)(=O)Nc1cc(-c2cc(-c3ccc(N4CCNCC4)cc3)cnc2N)cc(OCC)c1OCC [CSLP49],> 1000,> 100000,> 1000,
"CCCS(=O)(=O)Nc1cc(OC)cc(-c2cc(-c3ccc(N4CCNCC4)cc3)cnc2C)c1 [CSLP10, N-(3-Methoxy-5-(2-methyl-5-(4-(piperazin-1-yl)phenyl)pyridin-3-yl)phenyl)propane-1-sulfonamide]",> 1000,> 10,> 100,84
"CCCS(=O)(=O)Nc1cc(-c2cc(-c3ccc(N4CCNCC4)cc3)cnc2N)ccc1C [CSLP26, N-(5-(2-Amino-5-(4-(piperazin-1-yl)phenyl)pyridin-3-yl)-2-methylphenyl)propane-1-sulfonamide]",> 1000,> 1000,> 100,
"CCCS(=O)(=O)Nc1cc(-c2cc(-c3ccc(N4CCNCC4)cc3)cnc2N)cc(C)c1OC [CSLP42, N-(5-(2-Amino-5-(4-(piperazin-1-yl)phenyl)pyridin-3-yl)-2-methoxy-3-methylphenyl)propane-1-sulfonamide]",> 100,> 100,> 10,
"CCCS(=O)(=O)N1CCOc2c(F)cc(-c3cc(-c4ccc(N5CCNCC5)cc4)cnc3N)cc21 [CSLP57, 3-(8-Fluoro-4-(propylsulfonyl)-3,4-dihydro-2H-benzo[b][1,4]oxazin-6-yl)-5-(4-(piperazin-1-yl)phenyl)pyridin-2-amine]",> 100,> 1000,> 100,
